Measurements from patent publication US20110021560A1, “Compositions And Methods For Regulating Chondrocyte Proliferation In Bone Disorders” (University of Massachusetts Medical School, priority 2009, published 2011).

Legend:
[1] = tested on: fracture healing; details: rats (Simon et al., 2002); cited from earlier work
[2] = tested on: fracture callous; experiment: Mouse femur fracture model: histology and histomorphometry of fracture callous; type: in vivo, C57B/6 mice; details: for new bone formation by histomorphometry: Day 7 and Day 10, compared with controls; for amount of unmineralized chondroid matrix / callous size: Day 7 and Day 10 post fracture, vs control; for early stages of fracture repair (Safranin-O histology): animals sacrificed at Days 7, 10 and 14, oral gavage, montelukast sodium 1.5 mg/kg/Day, zileuton 45 mg/kg/Day; for fracture bridging and callous remodeling: by Day 21 (data not shown); for amount of chondroid (quantification) / percent chondroid (quantification) / total callous size (quantification): compared to control, montelukast sodium vs zileuton not significant
From the text: Because leukotrienes have been reported as potent inflammatory agents and may have a role as negative regulators of mesenchymal stem cell (MSC) differentiation, it was reasonable to determine as to whether inhibiting the effect of the cysteinyl leukotrienes would enhance chondrocyte proliferation in a bone healing from a fracture. See, Example II. […] Day 0 post-fracture X-rays were taken while under anesthesia. See, FIG. 3. Subsequent X-rays were taken at Days 7, 10, 14, and 21 for all animals (N=4) until the time of sacrifice. […] Histological sections for Days 7, 10, and 14 post-fracture where the differences between treated and control groups were most readily identifiable at early time points. See, FIG. 4. For example, evidence of healing was readily visible between the two treatment groups versus control as early as Day 7.
(§1) C57B/6 mice were purchased (Charles River, Inc.Q3) and housed in the animal facility at the University of Massachusetts Medical School under IACUC approved protocol. Eight- to 9-week-old animals were used in the study.
(§2) Institutional approval was obtained and all procedures were undertaken in accordance with approved IACUC methods. Animals were administered general anesthesia using IP injections of ketamine and xylazine. A midline skin incision over the knee joint was utilized and a median parapatellar arthrotomy was performed to expose the trochlear groove. A pilot hole was made using a 25 gauge needle to gain access to the femoral canal. The central cannula from a 22 gauge spinal needle was inserted into the canal and passed to the proximal femur in retrograde fashion. The wire was backed out slightly, cut, and reinserted. Wounds were closed, and the femur was held in a fixed position while a drop weight from a standard height was used to deliver a fixed traumatic injury to the mid portion of the femur, generating a fracture via three point bending, and ensuring that fractures were generated using a traumatic method with reproducible energy of injury (Marturano et al., 2008).
(§3) Medications were suspended in 1% methylcellulose (Sigma, Inc.Q6) and delivered by direct intragastric delivery. […] As the study medications are both currently FDA approved for the treatment of reactive airway disease, our dosing frequency was based on current prescription guidelines. Montelukast sodium was administered once daily by oral gavage. At the time the study began, zileuton was only approved for four times per Day dosing; as the drug needed to be administered by oral gavage and to maintain the normal sleep/awake cycle of the mouse colonies in the animal facilities, three doses of zileuton were dosed at 6-h intervals, with a 12-h break from 8 pm to 8 am. Control animals received 1% methylcellulose carrier only by a single daily oral gavage. The first dose of all medications was administered on post-fracture Day 1.
All animals were examined pre- and post-fracture using live fluoroscopy with an inverted Xiscan 1000 fluoroscope. Pre-fracture imaging was used to confirm correct positioning of the stabilizing wire, and post-fracture imaging was used to confirm correct fracture location and configuration. Additionally, standard radiographs were obtained in all animals immediately post-fracture with a high resolution MX-20 Faxitron on mammography film. Animals were anesthetized for additional X-rays to document fracture repair at 7, […] Days post-fracture. Animals were sacrificed immediately post-fracture if the fracture was not diaphyseal and transverse.
Fracture specimens were harvested at various times (7, 10, 14, and 21 Days) and fixed in a solution of 4% paraformaldehyde, 0.1% CPC in PBS for 16 h at room temperature, and then embedded in paraffin after decalcification. Embedded tissues were sectioned into […] slices, mounted on silane-coated glass slides (FisherQ7), de-paraffinized, and re-hydrated. […]

[3] = tested on: fracture callous mRNA expression; experiment: Quantitative real-time PCR of fracture callous tissue in mouse fracture model; type: in vivo, C57B/6 mice; details: for Col 1 mRNA levels: Day 7, compared with controls (data not shown); for Runx2 mRNA levels: Day 10, vs control (montelukast sodium P<0.05; zileuton P=0.06); for osteocalcin mRNA levels: Day 10, vs control (montelukast sodium P<0.05; zileuton P=0.07); for CysLT1 receptor mRNA levels in fracture callous: Day 10, control peak expression significantly higher; for Col 10a1 mRNA levels: Day 14, vs control (P<0.01)
From the text: Fracture callous was harvested from animals (N=4) in the three treatment groups after sacrifice at days 7, 10, 14, and 21 and assayed for expression of chondrogenic markers by qPCR. See, FIG. 10. […] Although it is not necessary to understand the mechanism of an invention, it is believed that the expression of Sox9 and Col 2a mRNA indicate a cellular commitment to the chondrocyte phenotype.
as §1, §2
as §3, with “Montelukast sodium was administered once daily by oral gavage.” left out
Mice were sacrificed on Days 7, 10, 14, and 21 post-fracture. The fractured limb was carefully dissected free and all overlying tissue was carefully removed to expose the fracture callous. Callous tissue alone was then placed in TRIzol reagent, avoiding the underlying cortical bone. The tissue was ground using a Polytron homogenizer and total RNA was isolated as per the manufacturer's instructions (InvitrogenQ11). Any potential DNA contamination was removed by RNase-free DNase treatment. The reverse transcription reaction was performed on […] of total RNA using the First Strand Synthesis Kit and random hexamer primers (Invitrogen). Relative transcript levels were measured by real-time PCR in a […] reaction volume on 96-well plate using ABI PRISM 7000 FAST sequence detection system (Applied BiosystemsQ12), following the recommended protocol for SYBR-Green (Applied Biosystems). Transcript levels were normalized with 18S ribosomal RNA levels using primers from Applied Biosystems and SYBR-Green master mix (Applied Biosystems). The primers used for amplification are described in Table 2.
Student's t-test was performed to analyze the significance of the data for gene expression and histomorphometric analysis.

[4] = Day 10, vs control (P<0.05 for zileuton)

Structure (SMILES)	fracture healing (radiographic, histological, mechanical testing) [1]	new bone formation by histomorphometry [2]	amount of unmineralized chondroid matrix [2]	callous size [2]	early stages of fracture repair (Safranin-O histology) [2]	fracture bridging and callous remodeling [2]	amount of chondroid (quantification) [2]	percent chondroid (quantification) [2]	total callous size (quantification) [2]	Col 1 mRNA levels [3]	Col 2a1 mRNA expression [3, 4]	SOX9 mRNA expression [3, 4]	Runx2 mRNA levels [3]	osteocalcin mRNA levels [3]	CysLT1 receptor mRNA levels in fracture callous [3]	Col 10a1 mRNA levels [3]	Col 2a1 mRNA expression ([3]; Day 14, vs control (P<0.05))	time of peak Sox9 mRNA levels ([3]; controls peak at day 7)	histone gene expression by qRT-PCR ([3]; data not shown)
Cc1ccc(-c2cc(C(F)(F)F)nn2-c2ccc(S(N)(=O)=O)cc2)cc1 [celecoxib]	fracture healing failed																		
CC(C)(O)c1ccccc1CCC(SCC1(CC(=O)O)CC1)c1cccc(C=Cc2ccc3ccc(Cl)cc3n2)c1 (centres unmarked) [montelukast sodium, [1-[[1-[3-[2-[(7-chloro-2-quinolyl)]vinyl]phenyl]-3-[2-(1-hydroxy-1-methyl-1-ethyl)phenyl]-propyl]sulfanylmethyl]-cyclopropyl]acetic acid]		significantly greater	markedly increased	dramatically larger	enhances	bridged the ends of the fracture and remodeled the callous to woven bone	significantly greater	significantly greater	significantly greater	decrease	not seen	not seen	higher	elevated	low	higher	elevated	peak later than controls at Day 10	
CS(=O)(=O)c1ccc(C2=C(c3ccccc3)C(=O)OC2)cc1 [rofecoxib]	fracture healing failed																		
CC(c1cc2ccccc2s1)N(O)C(N)=O (centres unmarked) [zileuton]		significantly greater	markedly increased	dramatically larger	enhances	bridged the ends of the fracture and remodeled the callous to woven bone	significantly greater	significantly greater	significantly greater	decrease	elevated	elevated	increased	elevated	low	significantly higher			higher
